Measurements: patent publication US20100056595A1, “Pyrazole Derivatives as P2X7 Modulators” (Glaxo Group Limited, priority 2007, published 2010)

Biological target: T1, human P2X7 receptor (Homo sapiens, UniProt Q99572)
T1 construct: expressed in transfected cells; host or cells: HEK293
T1 sequence (Q99572 1-595): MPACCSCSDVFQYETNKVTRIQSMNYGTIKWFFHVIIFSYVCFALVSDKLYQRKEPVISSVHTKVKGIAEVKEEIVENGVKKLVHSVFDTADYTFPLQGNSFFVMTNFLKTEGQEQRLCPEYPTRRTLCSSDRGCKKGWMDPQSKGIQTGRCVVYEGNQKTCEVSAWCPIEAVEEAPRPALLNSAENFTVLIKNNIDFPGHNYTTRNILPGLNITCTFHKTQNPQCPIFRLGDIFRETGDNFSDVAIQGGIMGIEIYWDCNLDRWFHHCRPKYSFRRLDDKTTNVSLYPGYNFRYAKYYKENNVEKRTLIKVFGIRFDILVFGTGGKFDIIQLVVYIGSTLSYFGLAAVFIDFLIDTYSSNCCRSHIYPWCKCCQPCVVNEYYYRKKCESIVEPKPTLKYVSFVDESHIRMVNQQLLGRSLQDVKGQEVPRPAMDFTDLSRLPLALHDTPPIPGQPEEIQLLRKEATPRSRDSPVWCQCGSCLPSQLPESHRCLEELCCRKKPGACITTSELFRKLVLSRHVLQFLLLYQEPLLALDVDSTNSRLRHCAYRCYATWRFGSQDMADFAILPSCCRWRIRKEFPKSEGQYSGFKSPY
Experiment: Ethidium Accumulation Assay
Format: cell-based
Settings: HEK293 cells expressing human recombinant P2X7 receptors; blocking ATP (1 mM) responses; read-out: pIC50 for human P2X7 receptor antagonist activity in the Ethidium Accumulation Assay (converted)
Procedure: Ethidium Accumulation Assay
Studies were performed using NaCl assay buffer of the following composition (in mM): 140 mM NaCl, HEPES 10, N-methyl-D-glucamine 5, KCl 5.6, D-glucose 10, CaCl2 0.5 (pH 7.4). HEK293 cells, expressing human recombinant P2X7 receptors, were grown in poly-L-lysine pretreated 96 well plates for 18-24 h. […] The cells were washed twice with 350 μl of assay buffer before addition of 50 μl of antagonist. The cells were then incubated at room temperature (19-21° C.) for 30 min before addition of ATP and ethidium (100 μM final assay concentration). The ATP concentration was chosen to be close to the EC80 for the receptor type and was 1 mM for studies on the human P2X7 receptor. Incubations were continued for 8 or 16 min and were terminated by addition of 25 μl of 1.3M sucrose containing 5 mM of the P2X7 receptor antagonist reactive black 5 (Aldrich). Cellular accumulation of ethidium was determined by measuring fluorescence (excitation wavelength of 530nm and emission wavelength of 620 nm) from below the plate with a Canberra Packard Fluorocount (Pangbourne, UK). Antagonist pIC50 values for blocking ATP responses were determined using iterative curve fitting techniques.

Cc1cnn(C)c1CC(=O)NCc1cccc(C(F)(F)F)c1Cl [Example 2, N-{[2-chloro-3-(trifluoromethyl)phenyl]methyl}-2-(1,4-dimethyl-1H-pyrazol-5-yl)acetamide]
IC50: ≤ 0.1 µM

Cc1cnn(CC(F)(F)F)c1CC(=O)NCc1ccc(F)c(F)c1Cl [Example 3, N-[(2-chloro-3,4-difluorophenyl)methyl]-2-[4-methyl-1-(2,2,2-trifluoroethyl)-1H-pyrazol-5-yl]acetamide]
IC50: ≤ 0.1 µM

Cc1cnn(C)c1CC(=O)NCc1ccc(F)c(F)c1Cl [Example 4, N-[(2-chloro-3,4-difluorophenyl)methyl]-2-(1,4-dimethyl-1H-pyrazol-5-yl)acetamide]
IC50: ≤ 0.1 µM

Cn1nccc1CC(=O)NCc1cccc(C(F)(F)F)c1Cl [Example 5, N-{[2-chloro-3-(trifluoromethyl)phenyl]methyl}-2-(1-methyl-1H-pyrazol-5-yl)acetamide]
IC50: ≤ 0.1 µM

Cn1ncc(Cl)c1CC(=O)NCc1cccc(C(F)(F)F)c1Cl [Example 6, 2-(4-chloro-1-methyl-1H-pyrazol-5-yl)-N-{[2-chloro-3-(trifluoromethyl)phenyl]methyl}acetamide]
IC50: ≤ 0.1 µM

Cn1ncc(Br)c1CC(=O)NCc1cccc(C(F)(F)F)c1Cl [Example 7, 2-(4-Bromo-1-methyl-1H-pyrazol-5-yl)-N-{[2-chloro-3-(trifluoromethyl)phenyl]methyl}acetamide]
IC50: ≤ 0.1 µM

Cn1ncc(F)c1CC(=O)NCc1cccc(C(F)(F)F)c1Cl [Example 8, N-{[2-chloro-3-(trifluoromethyl)phenyl]methyl}-2-(4-fluoro-1-methyl-1H-pyrazol-5-yl)acetamide]
IC50: ≤ 0.1 µM

Cc1cnn(C)c1CC(=O)NCc1ccc(Cl)cc1Cl [Example 10]
IC50: ≤ 0.1 µM

Cn1ncc(Cl)c1CC(=O)NCc1ccc(F)cc1Cl [Example 14, N-[(2-Chloro-4-fluorophenyl)methyl]-2-(4-chloro-1-methyl-1H-pyrazol-5-yl)acetamide]
IC50: ≤ 0.1 µM

Cn1ncc(Cl)c1CC(=O)NCc1ccc(F)c(F)c1Cl [Example 15, N-[(2-Chloro-3,4-difluorophenyl)methyl]-2-(4-chloro-1-methyl-1H-pyrazol-5-yl)acetamide]
IC50: ≤ 0.1 µM

Cn1ncc(Cl)c1CC(=O)NCc1ccc(Cl)cc1Cl [Example 16, 2-(4-Chloro-1-methyl-1H-pyrazol-5-yl)-N-[(2,4-dichlorophenyl)methyl]acetamide]
IC50: ≤ 0.1 µM

Cn1ncc(F)c1CC(=O)NCc1ccc(F)c(F)c1Cl [Example 18, N-[(2-Chloro-3,4-difluorophenyl)methyl]-2-(4-fluoro-1-methyl-1H-pyrazol-5-yl)acetamide]
IC50: ≤ 0.1 µM

Cn1ncc(F)c1CC(=O)NCc1ccc(Cl)cc1Cl [Example 19, N-[(2,4-Dichlorophenyl)methyl]-2-(4-fluoro-1-methyl-1H-pyrazol-5-yl)acetamide]
IC50: ≤ 0.1 µM

Cn1ncc(I)c1CC(=O)NCc1ccc(Cl)cc1Cl [Example 20, N-[(2,4-Dichlorophenyl)methyl]-2-(4-iodo-1-methyl-1H-pyrazol-5-yl)acetamide]
IC50: ≤ 0.1 µM
